Assay results from ChEMBL document CHEMBL3779786, “Tabtoxinine--lactam is a stealth -lactam antibiotic that evades -lactamase-mediated antibiotic resistance” (Medchemcomm, 2016).
Converted amounts (≈) assume the structure as drawn. The source made the active and inactive calls. The calls are words filed in the database; no cut-off is given here.

Columns and labels:
[1] = Drug level assessed as 1 uM Escherichia coli DH5alpha beta lactamase CTX-M-9 mediated compound formation treated with benzyl penicillin at 1 mM after 5 hrs by HPLC analysis; assay type: ADME; details: escherichia coli dh5[alpha], 1000 µM
[2] = Drug level assessed as 2 nM Escherichia coli DH5alpha beta lactamase TEM-1 mediated compound formation treated with benzyl penicillin at 1 mM after 30 mins by HPLC analysis; assay type: ADME; details: escherichia coli dh5[alpha], 0.5 h, 1000 µM
[3] = Drug level assessed as 2 nM Escherichia coli DH5alpha beta lactamase TEM-1 mediated compound formation treated with benzyl penicillin at 1 mM after 30 mins by LCMS analysis; assay type: ADME; details: escherichia coli dh5[alpha], 0.5 h, 1000 µM
[4] = Drug level assessed as 2 nM Escherichia coli DH5alpha beta lactamase CTX-M-9 mediated compound formation treated with benzyl penicillin at 1 mM after 30 mins by HPLC analysis; assay type: ADME; details: escherichia coli dh5[alpha], 0.5 h, 1000 µM
[5] = Drug level assessed as 1 uM Escherichia coli DH5alpha beta lactamase TEM-1 mediated compound formation treated with benzyl penicillin at 1 mM after 5 hrs by LCMS analysis; assay type: ADME; details: escherichia coli dh5[alpha], 1000 µM
[6] = Drug level assessed as 1 uM Escherichia coli DH5alpha beta lactamase TEM-1 mediated compound formation treated with benzyl penicillin at 1 mM after 5 hrs by HPLC analysis; assay type: ADME; details: escherichia coli dh5[alpha], 1000 µM
[7] = Drug level assessed as 2 nM Escherichia coli DH5alpha beta lactamase CTX-M-9 mediated compound formation treated with benzyl penicillin at 1 mM after 30 mins by LCMS analysis; assay type: ADME; details: escherichia coli dh5[alpha], 0.5 h, 1000 µM
[8] = Drug level assessed as 1 uM Escherichia coli DH5alpha beta lactamase CTX-M-9 mediated compound formation treated with benzyl penicillin at 1 mM after 5 hrs by LCMS analysis; assay type: ADME; details: escherichia coli dh5[alpha], 1000 µM
Escherichia coli [9] = assay: Antibacterial activity against Escherichia coli ATCC 25922 in glutamine-free minimal media after 24 hrs by broth microdilution method; assay type: functional; details: ATCC 25922, 24 h
[10] = Drug metabolism assessed as 1 uM Escherichia coli DH5alpha beta lactamase CTX-M-9 mediated metabolite formation at 1 mM after 5 hrs by LCMS analysis; assay type: ADME; details: escherichia coli dh5[alpha], 1000 µM
[11] = Drug metabolism assessed as 2 nM Escherichia coli DH5alpha beta lactamase CTX-M-9 mediated metabolite formation at 1 mM after 30 mins by HPLC analysis; assay type: ADME; details: escherichia coli dh5[alpha], 0.5 h, 1000 µM
[12] = Drug metabolism assessed as 2 nM Escherichia coli DH5alpha beta lactamase TEM-1 mediated metabolite formation at 1 mM after 30 mins by HPLC analysis; assay type: ADME; details: escherichia coli dh5[alpha], 0.5 h, 1000 µM
[13] = Drug metabolism assessed as 2 nM Escherichia coli DH5alpha beta lactamase TEM-1 mediated metabolite formation at 1 mM after 30 mins by LCMS analysis; assay type: ADME; details: escherichia coli dh5[alpha], 0.5 h, 1000 µM
[14] = Drug metabolism assessed as 1 uM Escherichia coli DH5alpha beta lactamase TEM-1 mediated metabolite formation at 1 mM after 5 hrs by HPLC analysis; assay type: ADME; details: escherichia coli dh5[alpha], 1000 µM
[15] = Drug metabolism assessed as 1 uM Escherichia coli DH5alpha beta lactamase CTX-M-9 mediated metabolite formation at 1 mM after 5 hrs by HPLC analysis; assay type: ADME; details: escherichia coli dh5[alpha], 1000 µM
[16] = Drug metabolism assessed as 2 nM Escherichia coli DH5alpha beta lactamase CTX-M-9 mediated metabolite formation at 1 mM after 30 mins by LCMS analysis; assay type: ADME; details: escherichia coli dh5[alpha], 0.5 h, 1000 µM
[17] = Drug metabolism assessed as 1 uM Escherichia coli DH5alpha beta lactamase TEM-1 mediated metabolite formation at 1 mM after 5 hrs by LCMS analysis; assay type: ADME; details: escherichia coli dh5[alpha], 1000 µM
Escherichia coli [18] = assay: Antibacterial activity against Escherichia coli DH5alpha expressing beta lactamase TEM-24 in glutamine-free minimal media after 24 hrs by broth microdilution method; assay type: functional; details: DH5[alpha]
Escherichia coli [19] = assay: Antibacterial activity against Escherichia coli DH5alpha expressing beta lactamase TEM-1 in glutamine-free minimal media after 24 hrs by broth microdilution method; assay type: functional; details: DH5[alpha]
Escherichia coli [20] = assay: Antibacterial activity against Escherichia coli in glutamine containing nutrient broth at 0.06 to 128 uM; assay type: functional, organism-based
Escherichia coli [21] = assay: Antibacterial activity against Escherichia coli DH5alpha expressing beta lactamase OXA-24/40 in glutamine-free minimal media after 24 hrs by broth microdilution method; assay type: functional; details: DH5[alpha]
Escherichia coli [22] = assay: Antibacterial activity against Escherichia coli BL21(DE3) expressing beta lactamase CTX-M-9 in glutamine-free minimal media after 24 hrs by broth microdilution method; assay type: functional
Escherichia coli [23] = assay: Antibacterial activity against Escherichia coli DH5alpha expressing beta lactamase VIM-2 in glutamine-free minimal media after 24 hrs by broth microdilution method; assay type: functional; details: DH5[alpha]
Escherichia coli [24] = assay: Antibacterial activity against Escherichia coli DH5alpha expressing beta lactamase KPC-3 in glutamine-free minimal media after 24 hrs by broth microdilution method; assay type: functional; details: DH5[alpha]
Escherichia coli [25] = assay: Antibacterial activity against Escherichia coli DH5alpha expressing beta lactamase CTX-M-15 in glutamine-free minimal media after 24 hrs by broth microdilution method; assay type: functional; details: DH5[alpha]
Escherichia coli [26] = assay: Antibacterial activity against Escherichia coli BL21(DE3) in glutamine-free minimal media after 24 hrs by broth microdilution method; assay type: functional
Escherichia coli [27] = assay: Antibacterial activity against Escherichia coli BL21(DE3) expressing beta lactamase TEM-1 with no leader sequence in glutamine-free minimal media after 24 hrs by broth microdilution method; assay type: functional
Staphylococcus aureus = assay: Bacteriostatic activity against Staphylococcus aureus in glutamine-free minimal media; assay type: functional, organism-based
Escherichia coli [28] = assay: Antibacterial activity against Escherichia coli DH5alpha expressing beta lactamase SHV-12 in glutamine-free minimal media after 24 hrs by broth microdilution method; assay type: functional; details: DH5[alpha]
Escherichia coli [29] = assay: Antibacterial activity against Escherichia coli DH5alpha expressing beta lactamase NDM-1 in glutamine-free minimal media after 24 hrs by broth microdilution method; assay type: functional; details: DH5[alpha]
Escherichia coli [30] = assay: Bactericidal activity against Escherichia coli; assay type: functional, organism-based
Escherichia coli [31] = assay: Antibacterial activity against Escherichia coli DH5alpha expressing beta lactamase SHV-5 in glutamine-free minimal media after 24 hrs by broth microdilution method; assay type: functional; details: DH5[alpha]
Escherichia coli [32] = assay: Antibacterial activity against Escherichia coli DH5alpha in glutamine-free minimal media after 24 hrs by broth microdilution method; assay type: functional; details: DH5[alpha]
Escherichia coli [33] = assay: Antibacterial activity against Escherichia coli BL21(DE3) expressing beta lactamase TEM-64 in glutamine-free minimal media after 24 hrs by broth microdilution method; assay type: functional
Escherichia coli [34] = assay: Antibacterial activity against Escherichia coli BL21(DE3) expressing beta lactamase TEM-1 in glutamine-free minimal media after 24 hrs by broth microdilution method; assay type: functional
Escherichia coli [35] = assay: Antibacterial activity against Escherichia coli BL21(DE3) expressing beta lactamase CTX-M-9 with no leader sequence in glutamine-free minimal media after 24 hrs by broth microdilution method; assay type: functional
[36] = Drug metabolism assessed as 1 uM Escherichia coli DH5alpha beta lactamase CTX-M-9 mediated formation of benzyl penicilloic acid at 1 mM after 5 hrs by HPLC analysis; assay type: ADME; details: escherichia coli dh5[alpha], 1000 µM
[37] = Drug metabolism assessed as 1 uM Escherichia coli DH5alpha beta lactamase CTX-M-9 mediated formation of benzyl penicilloic acid at 1 mM after 5 hrs by LCMS analysis; assay type: ADME; details: escherichia coli dh5[alpha], 1000 µM
[38] = Drug metabolism assessed as 2 nM Escherichia coli DH5alpha beta lactamase TEM-1 mediated formation of benzyl penicilloic acid at 1 mM after 30 mins by LCMS analysis; assay type: ADME; details: escherichia coli dh5[alpha], 0.5 h, 1000 µM
[39] = Drug metabolism assessed as 1 uM Escherichia coli DH5alpha beta lactamase TEM-1 mediated formation of benzyl penicilloic acid at 1 mM after 5 hrs by HPLC analysis; assay type: ADME; details: escherichia coli dh5[alpha], 1000 µM
[40] = Drug metabolism assessed as 2 nM Escherichia coli DH5alpha beta lactamase CTX-M-9 mediated formation of benzyl penicilloic acid at 1 mM after 30 mins by HPLC analysis; assay type: ADME; details: escherichia coli dh5[alpha], 0.5 h, 1000 µM
[41] = Drug metabolism assessed as 2 nM Escherichia coli DH5alpha beta lactamase TEM-1 mediated formation of benzyl penicilloic acid at 1 mM after 30 mins by HPLC analysis; assay type: ADME; details: escherichia coli dh5[alpha], 0.5 h, 1000 µM
[42] = Drug metabolism assessed as 2 nM Escherichia coli DH5alpha beta lactamase CTX-M-9 mediated formation of benzyl penicilloic acid at 1 mM after 30 mins by LCMS analysis; assay type: ADME; details: escherichia coli dh5[alpha], 0.5 h, 1000 µM
[43] = Drug metabolism assessed as 1 uM Escherichia coli DH5alpha beta lactamase TEM-1 mediated formation of benzyl penicilloic acid at 1 mM after 5 hrs by LCMS analysis; assay type: ADME; details: escherichia coli dh5[alpha], 1000 µM

Compound	Drug metabolism [10]	Drug metabolism [11]	Drug metabolism [12]	Drug metabolism [13]	MIC90 (Escherichia coli [18])	MIC90 (Escherichia coli [19])	MIC90 (Escherichia coli [21])	MIC90 (Escherichia coli [22])	MIC90 (Escherichia coli [23])	MIC90 (Escherichia coli [24])	MIC90 (Escherichia coli [25])	MIC90 (Escherichia coli [26])	MIC90 (Escherichia coli [27])	MIC90 (Escherichia coli [28])	MIC90 (Escherichia coli [29])	MIC90 (Escherichia coli [31])	MIC90 (Escherichia coli [32])	MIC90 (Escherichia coli [33])	MIC90 (Escherichia coli [34])	MIC90 (Escherichia coli [35])	further results
CC1(C)S[C@H]([C@H](NC(=O)Cc2ccccc2)C(=O)O)N[C@H]1C(=O)O																					Drug metabolism [1]: metabolite_detected; Drug metabolism [2]: metabolite_detected; Drug metabolism [3]: metabolite_detected; Drug metabolism [4]: metabolite_detected; Drug metabolism [5]: metabolite_detected; Drug metabolism [6]: metabolite_detected; Drug metabolism [7]: metabolite_detected; Drug metabolism [8]: metabolite_detected
N[C@@H](CC[C@]1(O)CNC1=O)C(=O)O	metabolite_detected	metabolite_detected	metabolite_detected	metabolite_detected																	MIC90 (Escherichia coli [9]): > 128 µM; Drug metabolism [14]: metabolite_detected; Drug metabolism [15]: metabolite_detected; Drug metabolism [16]: metabolite_detected; Drug metabolism [17]: metabolite_detected
C[C@@H](O)[C@H](NC(=O)[C@@H](N)CC[C@]1(O)CNC1=O)C(=O)O	metabolite_detected	metabolite_detected	metabolite_detected	metabolite_detected	0.0625 µM (≈ 0.0181 µg/mL)	0.25 µM (≈ 0.0723 µg/mL)	2 µM (≈ 0.579 µg/mL)	4 µM (≈ 1.16 µg/mL)	2 µM (≈ 0.579 µg/mL)	0.5 µM (≈ 0.145 µg/mL)	0.125 µM (≈ 0.0362 µg/mL)	8 µM (≈ 2.31 µg/mL)	16 µM (≈ 4.63 µg/mL)	0.25 µM (≈ 0.0723 µg/mL)	0.5 µM (≈ 0.145 µg/mL)	< 0.031 µM	0.5 µM (≈ 0.145 µg/mL)	16 µM (≈ 4.63 µg/mL)	4 µM (≈ 1.16 µg/mL)	8 µM (≈ 2.31 µg/mL)	Activity (Escherichia coli [20]): inactive; Activity (Staphylococcus aureus): Active; Drug metabolism [14]: metabolite_detected; Activity (Escherichia coli [30]): inactive; Drug metabolism [15]: metabolite_detected; Drug metabolism [16]: metabolite_detected; Drug metabolism [17]: metabolite_detected
CC1(C)S[C@@H]2[C@H](NC(=O)[C@H](N)c3ccccc3)C(=O)N2[C@H]1C(=O)O [AMPICILLIN]					> 128 µM	> 128 µM	> 128 µM	128 µM (≈ 44.7 µg/mL)	> 128 µM	> 128 µM	> 128 µM	0.5 µM (≈ 0.175 µg/mL)	> 128 µM	> 128 µM	> 128 µM	> 128 µM	2 µM (≈ 0.699 µg/mL)	> 128 µM	> 128 µM	128 µM (≈ 44.7 µg/mL)	
CC1(C)S[C@@H]2[C@H](NC(=O)Cc3ccccc3)C(=O)N2[C@H]1C(=O)O [PENICILLIN G]								128 µM (≈ 42.8 µg/mL)				4 µM (≈ 1.34 µg/mL)	> 128 µM					> 128 µM	> 128 µM	128 µM (≈ 42.8 µg/mL)	Drug metabolism [36]: metabolite_detected; Drug metabolism [37]: metabolite_detected; Drug metabolism [38]: metabolite_detected; Drug metabolism [39]: metabolite_detected; Drug metabolism [40]: metabolite_detected; Drug metabolism [41]: metabolite_detected; Drug metabolism [42]: metabolite_detected; Drug metabolism [43]: metabolite_detected
GENTAMICIN					0.5 µM	1 µM	0.5 µM	1.4 µM	1 µM	0.5 µM	1 µM	1.4 µM	1.4 µM	0.5 µM	1 µM	< 0.25 µM	0.25 µM	1.4 µM	1.4 µM	1.4 µM	
